From patent publication US20030143645A1, “Quinone reductase 2 and aldehyde dehydrogenase as therapeutic targets” (priority 2001, published 2003)

How the values were obtained:
[1] = biological target: QR1 (Oryctolagus cuniculus, UniProt U3KNP2); test: QR1 activity assay (Example 2); assay type: biochemical, rabbit; design: QR1 was purified from rabbit liver as previously described; from tissue; host or cells: rabbit liver
Procedure: Purification of native ALDH1, QR2 and QR1. RBC extract was prepared as described above and applied to PQ-Sepharose equilibrated in buffer A. ALDH1 and QR2 were obtained by eluting the column with 5 mM b-NAD^+ and NMeH respectively.
ALDH1, QR2 and QR1 activity assays. […] Reaction products were separated with a gradient of acetonitrile in 10 mM triethylamine acetic acid. […] QR1 IC50 values were calculated using GraphPad Prism.

[2] = tested on: purine binding proteome (hALDH1 and hQR2); test: ATP affinity array / ATP-Sepharose displacement elution of RBC purine binding proteome; design: species or system human
Procedure: ATP-affinity array chromatography. In whole mouse experiments, the animal (except for its tail, feet, skin and intestines) was frozen in liquid N2 and blended in buffer A containing 50 mM Hepes, pH 7.5, 50 mM NaCl, 10 mM MgCl2, 0.1% NONIDET- P40, 1 mM dithiothreitol, 1 μg/ml leupeptin, 100 μg/ml pefabloc and 10 μg/ml aprotinin. Mouse lysate was clarified by centrifugation for 1 hr at 100,000×g. For infected and non-infected RBC's˜1.5×10^9 cells were mixed with an equal volume of 2×buffer A, rocked for 30 min at 4° C., and clarified by centrifugation for 1 hr at 100,000×g. Supernatants were dialyzed overnight against 50 mM Hepes, pH 7.5, 50 mM NaCl, 10 mM MgCl2 and 1 mM dithiothreitol. […] Proteins were resolved by 12% SDS-PAGE and visualized by staining either with Coomassie brilliant Blue R-250 or silver nitrate. Alternatively, proteins were transferred to membrane GeneMate (Kaysville, Utah) in transfer buffer (25 mM Tris, 200 mM glycine, 20% methanol, and 0.01% SDS) for mixed peptide sequencing (Damer et al, J. Biol. Chem. 273:24396 (1998)). hALDH 1 and hQR2 purification and activity assays. Fresh human red blood cells (RBC) were obtained from Valley Biomedical, washed twice with PBS, and lysed in buffer B (0.1% Triton X, 50 mM Tris pH 7.5, 125 mM NaCl, 1 μg/mL aprotonin, 1 μg/mL pepstatin and 10 μg/mL PEFABLOC). Lysates were centrifuged twice at 125,000×g for 1 hr at 4° C. Cleared supernatant was filtered through a […] filter and loaded onto PQ-Sepharose. Pure hALDH was eluted with 5 mM NADH and pure hQR2 with 5 mM NMeN. The eluants were dialyzed overnight at 4° C. against 25 mM Tris pH 8.0 and 1 mM DTT. hALDHl was assayed as described in Table 2. Purified hQR2 was assayed at 22° C. in 100 μM N-methyldihydronicotinamide, 30 μM menadione, 0.1% Triton X-100, 50 mM Tris pH 8.5, 100 μM dicoumarol (unless stated otherwise). N-methyldihydronicotinamide was synthesized (Ortiz-Maldonado et al, Biochemistry 38(50):16636-16647 (1999)) and stored in 100 mM Tris-sulfate pH 8.0.
An ATP affinity array was charged with RBC and P. falciparum (blood stage) infected RBC extract.
chromatography. P. falciparum-infected or non-infected RBCs were lysed by mixing with an equal volume of 2×buffer A and rocking for 30 min at 4° C. 1×buffer A: 50 mM Hepes, pH 7.5, 50 mM NaCl, 10 mM MgCl2, 0.1% NONIDET-P40, 1 mM dithiothreitol, 1 μg/ml leupeptin, 100 μg/ml pefabloc and 1 μg/ml aprotinin. […] Proteins were resolved by 12% SDS-PAGE and visualized by staining with Coomassie brilliant blue R-250 or silver nitrate. Alternatively, proteins were transferred to PVM membrane (Kaysville, Utah) for mixed peptide sequencing (Damer et al, J. Biol. Chem. 273(38):24396-24405 (1998)).
To better understand the mechanism of the quinolines, an attempt was made to identify all quinoline interacting proteins in a cell or animal lysate. To achieve this, a functional proteomics approach was used as outlined in FIG. 7. In this strategy, three different, yet complementary approaches were conducted to identify and validate targets of the quinolines. In step one, termed displacement affinity chromatography, a specific sub-proteome from a cell is captured on an affinity matrix by virtue of its interaction with an immobilized ligand (FIG. 7, Step 1). The sup-proteome is captured after application of saturating amounts of cell lysate and extensive washing of the resin. The compounds of interest (in this case, the quinolines) are then applied to the matrix in parallel and allowed to interact with the bound proteome. […] In the second step, affinity matrices were created by directly linking the quinoline drugs to Sepharose, and after application of cell lysates, all proteins that specifically eluted from these matrices in the presence of drug were identified (FIG. 7 Step 2).

Chain of QR1 (U3KNP2 1-274): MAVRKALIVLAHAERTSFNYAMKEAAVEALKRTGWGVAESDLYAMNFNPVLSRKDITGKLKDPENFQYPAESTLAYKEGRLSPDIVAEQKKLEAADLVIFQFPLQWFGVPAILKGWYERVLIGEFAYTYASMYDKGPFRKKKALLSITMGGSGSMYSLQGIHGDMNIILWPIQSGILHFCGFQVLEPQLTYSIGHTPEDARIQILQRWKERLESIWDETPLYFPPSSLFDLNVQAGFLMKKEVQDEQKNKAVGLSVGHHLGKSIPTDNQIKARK

- IC50 [1]: > 1000 µM
- effect on QR1 activity [1]: not affected
- proteins eluted from ATP affinity array (hALDH1 and hQR2) ([2]; non-infected red cells, drug at [mM]): selectively eluted two proteins
Compound: CCN(CC)CCCC(C)Nc1ccnc2cc(Cl)ccc12 (stereo not shown) [CQ, chloroquine]
- proteins eluted from ATP-Sepharose (ALDH1 55 kDa, QR2 26 kDa) ([2]; RBC extract, 5 mM drug (Example 2)): selectively eluted proteins of 55 and 26 kDa
